Tests used:
Type in all cases: cell-based
[1] = molecular target: T1, Cloned human M1 receptor (CHRM1) (Homo sapiens, UniProt P11229); assay: CHRM1 Ca++ Flux Assay (HEK293 M1 cells, agonist mode); conditions: for M1 FDSS PA %: Percent Activity (PA); for EC50: geometric mean if tested more than once, read-out: M1 FDSS EC50
T1 construct: expressed in transfected cells; host or cells: HEK293
T1 sequence (P11229 1-460): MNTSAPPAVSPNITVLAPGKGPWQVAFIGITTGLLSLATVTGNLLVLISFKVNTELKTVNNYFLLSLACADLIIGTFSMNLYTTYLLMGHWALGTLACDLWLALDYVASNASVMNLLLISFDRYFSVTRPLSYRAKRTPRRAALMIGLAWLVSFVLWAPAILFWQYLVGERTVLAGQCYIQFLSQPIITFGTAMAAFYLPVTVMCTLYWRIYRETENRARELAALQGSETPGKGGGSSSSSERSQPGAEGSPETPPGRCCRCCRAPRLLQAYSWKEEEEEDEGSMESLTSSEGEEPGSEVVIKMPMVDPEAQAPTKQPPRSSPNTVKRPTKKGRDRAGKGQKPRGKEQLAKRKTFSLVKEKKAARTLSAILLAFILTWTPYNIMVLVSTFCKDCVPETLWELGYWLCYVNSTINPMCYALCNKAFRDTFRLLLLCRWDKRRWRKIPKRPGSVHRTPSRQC
Method: (§1) The above examples were characterized by measuring the intracellular mobilization of Ca^++ ions caused by signaling events mediated by the receptor. The Intra-cellular Calcium flux levels were captured by the highly sensitive Ca^++ indicator, Calcium Assay Kit (BD Biosciences; Catalog Number 640178. The fluorescent activity from all receptors were monitored by the fluorescent imager, FDSS 7000EX (Hamamatsu) over a span of 3 minutes. The change in Calcium flux was readily captured upon activation with the muscarinic orthosteric agonist, Carbachol.
Cloned human M1 receptor (CHRM1) was stably expressed in HEK293 cells and were grown and maintained in a monolayer culture with DMEM/High Glucose (Life Technologies) supplemented with 10% Fetal Bovine Serum, 1×Pen-Strep, and 0.5 mg/mL Geneticin in a humidified atmosphere (5% CO2) at 37° C. The cultures were grown to 90% confluency in T150 flasks (Corning) and washed with 1×DPBS and lifted with 0.05% Trypsin (Life Technologies). The cells were then spun (1K rpm, 3 minutes) and frozen using Recovery Cell Culture Freezing Media (Gibco Technologies). Cells were stored in liquid nitrogen and thawed a day before the assay.
Prior to the day of the assay, stable HEK293 M1 cells were thawed and plated on 384 well black walled clear bottom TC treated plates (Greiner Cat #781091) at 25K cells/well with DMEM/High Glucose supplemented with 10% FBS (Hyclone) Pen-Strep (Life Technologies) and kept overnight in a humidified atmosphere (5% CO2) at 37° C. The following day, cells were loaded with 20 uL Ca^++ dye (BD Biosciences) using Loading Buffer (HBSS +Ca/+Mg, 20 mM HEPES) and placed back in cell incubator for a minimum of 1 hour. The dye was replaced with 45 μL Assay Buffer (HBSS −Ca/−Mg, 20 mM HEPES) and kept at room temperature prior to running on cell imager. Compounds were prepared in Assay Buffer and 5 uL was added to the cells. The FDSS 7000EX (Hamamatsu) was used to acquire Ca++ traces for 3 minutes from cells treated with 11 point dose in triplicate in order to generate dose response curves in agonist mode. All compounds were serially diluted in DMSO then prepared in Assay Buffer for Ca^++ flux studies. The dose response curves were generated from the average of triplicate wells obtained from each data point and used a non-linear regression of four parameter dose response algorithm. The Percent Activity (PA) was measured to EC100 of Carbachol.
(§2) If an Example was tested more than once in an assay, then the values below represent the geometric mean of the results from each independent experiment.

[2] = molecular target: T2, human cloned CHRM5 receptor (Homo sapiens, UniProt P08912); assay: CHRM5 Ca++ Flux Assay (M5_CHO cells, agonist mode); conditions: for M5 FDSS PA %: Percent Activity (PA) measured to EC100 of Carbachol; for EC50: agonist mode, geometric mean if tested more than once, read-out: M5 FDSS EC50
T2 construct: expressed in transfected cells; host or cells: CHO (M5_CHO)
T2 sequence (P08912 1-532): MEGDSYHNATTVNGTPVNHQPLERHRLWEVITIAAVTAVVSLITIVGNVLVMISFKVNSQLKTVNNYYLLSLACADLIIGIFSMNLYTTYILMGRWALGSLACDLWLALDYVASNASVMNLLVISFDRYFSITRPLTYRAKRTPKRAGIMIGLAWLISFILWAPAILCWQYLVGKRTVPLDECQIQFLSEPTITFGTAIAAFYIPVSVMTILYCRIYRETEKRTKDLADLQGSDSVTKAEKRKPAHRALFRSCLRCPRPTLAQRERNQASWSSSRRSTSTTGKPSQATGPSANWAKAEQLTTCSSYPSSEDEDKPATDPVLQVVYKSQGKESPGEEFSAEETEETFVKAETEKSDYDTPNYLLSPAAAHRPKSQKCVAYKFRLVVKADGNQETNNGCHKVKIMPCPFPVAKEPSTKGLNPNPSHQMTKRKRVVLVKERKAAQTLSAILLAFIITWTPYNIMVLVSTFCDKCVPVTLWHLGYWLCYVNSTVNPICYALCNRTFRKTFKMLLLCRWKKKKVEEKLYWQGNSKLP
Method: as §1
(§3) CHO-K1 cells stably expressing the human cloned CHRM3 receptor (M3_CHO cells) were grown and maintained in a monolayer culture with F12/HAM (Life Technologies) supplemented with 10% Fetal Bovine Serum, IX Pen-Strep, and 0.4 mg/mL Geneticin in a humidified atmosphere (5% CO2) at 37° C. The cultures were grown to 80-90% confluency in T150 flasks (Corning) and washed with 1×DPBS and lifted with 0.05% Trypsin (Life Technologies). The cells were then spun (1K rpm, 3 minutes) and frozen using Recovery Cell Culture Freezing Media (Gibco Technologies). Cells were stored in liquid nitrogen and thawed a day before the assay. A similar procedure was used for cells stably expressing the human cloned CHRM5 receptor (M5_CHO).
(§4) Prior to the day of the assay, stable M3_CHO or M5_CHO cells were thawed and plated on Greiner 384 well black TC treated plates at 12K cells/well in F12/DMEM supplemented with 10% FBS (Hyclone) and kept overnight in a humidified atmosphere (5% CO2) at 37° C. The next day, cells were loaded with Ca^++ dye (BD Biosciences) using Loading Buffer (HBSS +Ca/+Mg, 20 mM HEPES, 2.5 mM Probenecid) and placed back in cell incubator for a minimum of 1 hour. After incubation, the dye was replaced with Assay Buffer (HBSS −Ca/−Mg, 20 mM HEPES, 2.5 mM Probenecid) and kept at room temperature in the dark before running on cell imager. The FDSS 7000EX (Hamamatsu) was used to acquire Ca^+− traces from cells treated with 11 point dose response of compounds in triplicate in order to generate dose response curves in agonist mode. All compounds were serially diluted in DMSO then prepared in Assay Buffer for Ca^++ flux studies. The dose response curves were generated from the average of triplicate wells obtained from each data point and used a non-linear regression of four parameter dose response algorithm. The Percent Activity (PA) was measured to EC100 of Carbachol.
as §2

[3] = molecular target: T3, human cloned CHRM3 receptor (Homo sapiens, UniProt P20309); assay: CHRM3 Ca++ Flux Assay (M3_CHO cells, agonist mode); conditions: for M3 FDSS PA %: Percent Activity (PA) measured to EC100 of Carbachol; for EC50: agonist mode, geometric mean if tested more than once, read-out: M3 FDSS EC50
T3 construct: expressed in transfected cells; host or cells: CHO-K1 (M3_CHO)
Method: as §1, §3, §4, §2

T3 sequence (P20309 whole entry): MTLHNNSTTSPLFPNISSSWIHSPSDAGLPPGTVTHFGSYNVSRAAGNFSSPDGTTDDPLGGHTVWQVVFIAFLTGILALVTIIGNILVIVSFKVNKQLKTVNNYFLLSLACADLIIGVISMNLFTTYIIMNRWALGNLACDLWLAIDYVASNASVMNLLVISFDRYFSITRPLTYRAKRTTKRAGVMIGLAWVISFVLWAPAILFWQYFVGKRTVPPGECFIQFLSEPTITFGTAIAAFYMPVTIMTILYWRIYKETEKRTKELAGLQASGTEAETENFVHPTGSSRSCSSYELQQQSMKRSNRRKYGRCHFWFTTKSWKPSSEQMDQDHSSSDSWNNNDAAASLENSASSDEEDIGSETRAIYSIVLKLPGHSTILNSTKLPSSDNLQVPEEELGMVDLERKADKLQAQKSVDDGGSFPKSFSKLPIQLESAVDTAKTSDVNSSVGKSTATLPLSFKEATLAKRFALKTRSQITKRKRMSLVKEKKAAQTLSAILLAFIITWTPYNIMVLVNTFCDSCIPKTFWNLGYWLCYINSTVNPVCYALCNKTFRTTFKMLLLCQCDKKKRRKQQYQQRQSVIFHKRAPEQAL

M1 FDSS PA % [1] | EC50 [1] | M5 FDSS PA % [2] | EC50 [2] | M3 FDSS PA % [3] | EC50 [3] | SMILES
56% | 0.848 µM | 0% | > 25 µM | 0% | > 25 µM | Fc1ccc(O[C@H]2CCCOC2)c(C2CCN([C@@H]3COC4(C3)CN(c3nnco3)C4)CC2)c1 (single isomer, unassigned) [Example 2R, (S)-7-(4-(5-fluoro-2-(((S)-tetrahydro-2H-pyran-3-yl)oxy)phenyl)piperidin-1-yl)-2-(1,3,4-oxadiazol-2-yl)-5-oxa-2-azaspiro[3.4]octane or (S)-7-(4-(5-fluoro-2-(((R)-tetrahydro-2H-pyran-3-yl)oxy)phenyl)piperidin-1-yl)-2-(1,3,4-oxadiazol-2-yl)-5-oxa-2-azaspiro[3.4]octane]
31% | 1.65 µM | 0% | > 25 µM | 0% | > 25 µM | CC(C)(O)[C@H]1C[C@H](Oc2ccc(F)cc2C2CCN([C@@H]3COC4(C3)CN(c3nnco3)C4)CC2)C1 (single isomer, unassigned) [Example 2V, 2-((1S,3r)-3-(2-(1-((S)-2-(1,3,4-oxadiazol-2-yl)-5-oxa-2-azaspiro[3.4]octan-7-yl)piperidin-4-yl)-4-fluorophenoxy)cyclobutyl)propan-2-ol or 2-((1R,3s)-3-(2-(1-((S)-2-(1,3,4-oxadiazol-2-yl)-5-oxa-2-azaspiro[3.4]octan-7-yl)piperidin-4-yl)-4-fluorophenoxy)cyclobutyl)propan-2-ol]
66% | 3.44 µM | 0% | > 25 µM | 0% | > 25 µM | CC(C)(O)[C@H]1C[C@H](Oc2ccc(F)cc2C2CCN([C@@H]3COC4(C3)CN(c3nnco3)C4)CC2)C1 (single isomer, unassigned) [Example 2W, 2-((1S,3r)-3-(2-(1-((S)-2-(1,3,4-oxadiazol-2-yl)-5-oxa-2-azaspiro[3.4]octan-7-yl)piperidin-4-yl)-4-fluorophenoxy)cyclobutyl)propan-2-ol or 2-((1R,3s)-3-(2-(1-((S)-2-(1,3,4-oxadiazol-2-yl)-5-oxa-2-azaspiro[3.4]octan-7-yl)piperidin-4-yl)-4-fluorophenoxy)cyclobutyl)propan-2-ol]
51% | 10.8 µM | 13% | 9.46 µM | 0% | > 25 µM | C[C@H](Oc1ccc(F)cc1C1CCN([C@@H]2COC3(C2)CN(c2nnco2)C3)CC1)C1CCOCC1 (single isomer, unassigned) [Example 2Y, (S)-7-(4-(5-fluoro-2-((S)-1-(tetrahydro-2H-pyran-4-yl)ethoxy)phenyl)piperidin-1-yl)-2-(1,3,4-oxadiazol-2-yl)-5-oxa-2-azaspiro[3.4]octane or (S)-7-(4-(5-fluoro-2-((R)-1-(tetrahydro-2H-pyran-4-yl)ethoxy)phenyl)piperidin-1-yl)-2-(1,3,4-oxadiazol-2-yl)-5-oxa-2-azaspiro[3.4]octane]

SMILES | M1 FDSS PA % [1] | EC50 [1] | M5 FDSS PA % [2] | EC50 [2] | M3 FDSS PA % [3] | EC50 [3]
c1ccc([C@@H]2CCOC2)c(C2CCN([C@@H]3COC4(C3)CN(c3nnco3)C4)CC2)c1 (single isomer, unassigned) [Example 3A, (S)-2-(1,3,4-oxadiazol-2-yl)-7-(4-(2-((S)-tetrahydrofuran-3-yl)phenyl)piperidin-1-yl)-5-oxa-2-azaspiro[3.4]octane or (S)-2-(1,3,4-oxadiazol-2-yl)-7-(4-(2-((R)-tetrahydrofuran-3-yl)phenyl)piperidin-1-yl)-5-oxa-2-azaspiro[3.4]octane] | 85% | 1.11 µM | 0% | > 25 µM | 0% | > 25 µM
c1ccc([C@@H]2CCOC2)c(C2CCN([C@@H]3COC4(C3)CN(c3nnco3)C4)CC2)c1 (single isomer, unassigned) [Example 3B, (S)-2-(1,3,4-oxadiazol-2-yl)-7-(4-(2-((S)-tetrahydrofuran-3-yl)phenyl)piperidin-1-yl)-5-oxa-2-azaspiro[3.4]octane or (S)-2-(1,3,4-oxadiazol-2-yl)-7-(4-(2-((R)-tetrahydrofuran-3-yl)phenyl)piperidin-1-yl)-5-oxa-2-azaspiro[3.4]octane] | 82% | 1.12 µM | 0% | > 25 µM | 0% | > 25 µM
Fc1ccc([C@H]2CCOC2)c(C2CCN([C@@H]3COC4(C3)CN(c3nnco3)C4)CC2)c1 (single isomer, unassigned) [Example 3E, (S)-7-(4-(5-fluoro-2-((R)-tetrahydrofuran-3-yl)phenyl)piperidin-1-yl)-2-(1,3,4-oxadiazol-2-yl)-5-oxa-2-azaspiro[3.4]octane or (S)-7-(4-(5-fluoro-2-((S)-tetrahydrofuran-3-yl)phenyl)piperidin-1-yl)-2-(1,3,4-oxadiazol-2-yl)-5-oxa-2-azaspiro[3.4]octane] | 86% | 0.695 µM | 0% | > 25 µM | 0% | > 25 µM

Source: patent US11485742B2, “2-azaspiro[3.4]octane derivatives as M4 agonists” (NOVARTIS AG, priority 2019, dated 2022)
